Converted amounts (≈) assume the structure as drawn.
Assays:
[1] = Cumulative release study of CPF from NFC depots with solvents; format: physicochemical
Procedure: Cumulative release study aiming to increase the release rate of CPF and receive close to 100% cumulative result for NFC-formulations within 7 days. Following detailed tasks were performed: • Two solvents, DMSO (Dimethyl sulfoxide) and NMP (N-methyl-2-pyrrolidone), in addition to H2O were used to enhance release of CPF • 6% anionic and 1.5% native NFC were studied • Study included formulation and short in vitro dissolution studies for NFC-API depots to follow cumulative release
Cumulative release study aiming to increase cumulative result for NFC-formulations was performed with CPF, as it had clearly lower cumulative release results in previous experiments compared to MLX. 6% anionic and 1.5% native NFC were studied. Two solvents, DMSO (dimethyl sulfoxide) and NMP (N-methyl-2-pyrrolidone), in addition to H2O were used to enhance the release of CPF. The study included formulation and short in vitro dissolution studies for NFC-API depots to follow cumulative release (FIG. 7). Depots contained 50% of solvent and 50% of NFC.
However, the increase was most apparent within the first hours and first day of study, which after the release reverted to the level of pure NFC formulations.

[2] = water at 25° C.; cited from earlier work

effect on release of CPF ([1]; 50% DMSO in NFC depot)	effect on release of CPF ([1]; 50% NMP in NFC depot)	SMILES	solubility in water [2] [µg/mL]
increased the release	increased the release	CC(C(=O)O)c1ccc2c(c1)[nH]c1ccc(Cl)cc12 (stereo not drawn) [Carprofen]	
		Cc1cnc(NC(=O)C2=C(O)c3ccccc3S(=O)(=O)N2C)s1 [Meloxicam]	7.15 (≈ 20.3 µM)
